Laboratory results published in publication PMC10143702, “Kinetic and Regulatory Properties of Yarrowia lipolytica Aconitate Hydratase as a Model-Indicator of Cell Redox State under pH Stress” (International Journal of Molecular Sciences, 2023).
Where two headings read alike, the source gives them in different places.

How the values were obtained:
aconitate hydratase (AH) [1] = test system: T1, aconitate hydratase (AH); conditions: read-out: Citrate / Km; enzyme from cells grown at pH 5.5; 50 mM Tris-HCl pH 7.8, 25 °C; partially purified
T1 construct: gene ACO1

aconitate hydratase (AH) [2] = test system: T2, aconitate hydratase (AH); assay: spectrophotometric at […] nm; Lineweaver-Burk; format: biochemical, Yarrowia lipolytica; conditions: enzyme from cells grown at pH 5.5; 50 mM Tris-HCl pH 7.8, 25 °C; partially purified; reverse reaction; read-out: Isocitrate / Km
T2 construct: gene ACO1; cells grown at pH 5.5; [4Fe-4S] enzyme

| Km (aconitate hydratase (AH) [2]) [µM] | SMILES | Km (aconitate hydratase (AH) [1]) [µM] |
| --- | --- | --- |
| – | O=C(O)CC(O)(CC(=O)O)C(=O)O [citrate] | 320 ± 11 |
| 270 ± 15 | O=C(O)C[C@H](C(=O)O)[C@@H](O)C(=O)O [isocitrate] | – |
